Data as given in PubChem BioAssay AID743235 (The Scripps Research Institute Molecular Screening Center, 2013).
Active and inactive are the calls of the source. The rule behind the calls is not given here.

Test system: Counterscreen cells for TAAR1 agonist assay, fluorescence
Experiment: TAAR1 agonist activity of antagonist hits, late-stage follow-up, counter-screen for TAAR1 antagonist project, cell-based, fluorescence, human (AID 743235)

| Compound | EC50 |
| --- | --- |
| COc1cc(NC(=O)c2cc3ccccc3o2)c(OC)cc1Cl | > 29.9 µM (inactive) |
| Cc1cccc(C(C#N)c2nc3ccccc3nc2C(F)(F)F)c1 (stereo unspecified) | > 29.9 µM (inactive) |
| COc1cccc(-c2nn(-c3ccccc3)cc2C(=O)Nc2nccs2)c1 | > 29.9 µM (inactive) |
| CCOC(=O)C1CCCN(c2c(C(=O)c3ccccc3)cnc3ccc(OC)cc23)C1 (stereo unspecified) | 20.1 µM (inactive) |
| O=C(NCCn1cc(SCc2ccccc2F)c2ccccc21)c1c(F)cccc1F | > 29.9 µM (inactive) |
| Cc1ccc(CSCC(=O)Nc2cc(S(=O)(=O)N3CCOCC3)ccc2OCC(F)(F)F)cc1 | > 29.9 µM (inactive) |
